PubChem BioAssay (NCI)
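Cultured in 96-well plates, cells were exposed to test compound for 48 hours across five concentrations. TGI is the concentration that stops growth completely.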

Key:
Assay in all cases: NCI anticancer screen, dose series, 48 h
786-0 renal = tested on: 786-0 renal
A498 renal = tested on: A498 renal
A549 NSCLC = tested on: A549 NSCLC
ACHN renal = tested on: ACHN renal
CCRF-CEM leukemia = tested on: CCRF-CEM leukemia
COLO 205 colon = tested on: COLO 205 colon
DLD-1 colon = tested on: DLD-1 colon
DMS 114 small cell lung = tested on: DMS 114 small cell lung
DMS 273 small cell lung = tested on: DMS 273 small cell lung
EKVX NSCLC = tested on: EKVX NSCLC
HCC-2998 colon = tested on: HCC-2998 colon
HCT-116 colon = tested on: HCT-116 colon
HCT-15 colon = tested on: HCT-15 colon
HL-60(TB) leukemia = tested on: HL-60(TB) leukemia
HOP-62 NSCLC = tested on: HOP-62 NSCLC
HT29 colon = tested on: HT29 colon
IGROV1 ovarian = tested on: IGROV1 ovarian
K-562 leukemia = tested on: K-562 leukemia
KM20L2 colon = tested on: KM20L2 colon
LOX IMVI melanoma = tested on: LOX IMVI melanoma
LXFL 529 NSCLC = tested on: LXFL 529 NSCLC
M14 melanoma = tested on: M14 melanoma
M19-MEL melanoma = tested on: M19-MEL melanoma
MALME-3M melanoma = tested on: MALME-3M melanoma
MOLT-4 leukemia = tested on: MOLT-4 leukemia
NCI-H226 lung = tested on: NCI-H226 lung
NCI-H23 lung = tested on: NCI-H23 lung
NCI-H460 lung = tested on: NCI-H460 lung
OVCAR-3 ovarian = tested on: OVCAR-3 ovarian
OVCAR-4 ovarian = tested on: OVCAR-4 ovarian
OVCAR-8 ovarian = tested on: OVCAR-8 ovarian
RPMI-8226 leukemia = tested on: RPMI-8226 leukemia
RXF 393 renal = tested on: RXF 393 renal
RXF-631 renal = tested on: RXF-631 renal
SF-268 CNS = tested on: SF-268 CNS
SF-295 CNS = tested on: SF-295 CNS
SF-539 CNS = tested on: SF-539 CNS
SK-MEL-2 melanoma = tested on: SK-MEL-2 melanoma
SK-MEL-28 melanoma = tested on: SK-MEL-28 melanoma
SK-MEL-5 melanoma = tested on: SK-MEL-5 melanoma
SN12C renal = tested on: SN12C renal
SNB-19 CNS = tested on: SNB-19 CNS
SNB-75 CNS = tested on: SNB-75 CNS
SR leukemia = tested on: SR leukemia
SW-620 colon = tested on: SW-620 colon
TK-10 renal = tested on: TK-10 renal
U251 CNS = tested on: U251 CNS
UACC-257 melanoma = tested on: UACC-257 melanoma
UACC-62 melanoma = tested on: UACC-62 melanoma
UO-31 renal = tested on: UO-31 renal
XF 498 CNS = tested on: XF 498 CNS
KM12 colon = tested on: KM12 colon
NCI-H522 lung = tested on: NCI-H522 lung
OVCAR-5 ovarian = tested on: OVCAR-5 ovarian
SK-OV-3 ovarian = tested on: SK-OV-3 ovarian
SNB-78 CNS = tested on: SNB-78 CNS

## CCOC(=O)C1=C(C)N(c2ccc(C)cc2)C2=C(C(=O)N(c3ccccc3)C2c2ccccc2)C1c1ccccc1 (stereo not drawn)
786-0 renal
  TGI: > 25 µM
A498 renal
  TGI: > 25 µM
A549 NSCLC
  TGI: > 25 µM
ACHN renal
  TGI: > 25 µM
CCRF-CEM leukemia
  TGI: > 25 µM
COLO 205 colon
  TGI: > 25 µM
DLD-1 colon
  TGI: > 25 µM
DMS 114 small cell lung
  TGI: > 25 µM
DMS 273 small cell lung
  TGI: > 25 µM
EKVX NSCLC
  TGI: > 25 µM
HCC-2998 colon
  TGI: > 25 µM
HCT-116 colon
  TGI: > 25 µM
HCT-15 colon
  TGI: > 25 µM
HL-60(TB) leukemia
  TGI: > 25 µM
HOP-62 NSCLC
  TGI: > 25 µM
HT29 colon
  TGI: > 25 µM
IGROV1 ovarian
  TGI: > 25 µM
K-562 leukemia
  TGI: > 25 µM
KM20L2 colon
  TGI: > 25 µM
LOX IMVI melanoma
  TGI: > 25 µM
LXFL 529 NSCLC
  TGI: > 25 µM
M14 melanoma
  TGI: > 25 µM
M19-MEL melanoma
  TGI: > 25 µM
MALME-3M melanoma
  TGI: > 25 µM
MOLT-4 leukemia
  TGI: > 25 µM
NCI-H226 lung
  TGI: > 25 µM
NCI-H23 lung
  TGI: > 25 µM
NCI-H460 lung
  TGI: > 25 µM
OVCAR-3 ovarian
  TGI: > 25 µM
OVCAR-4 ovarian
  TGI: > 25 µM
OVCAR-8 ovarian
  TGI: > 25 µM
RPMI-8226 leukemia
  TGI: > 25 µM
RXF 393 renal
  TGI: > 25 µM
RXF-631 renal
  TGI: > 25 µM
SF-268 CNS
  TGI: > 25 µM
SF-295 CNS
  TGI: > 25 µM
SF-539 CNS
  TGI: > 25 µM
SK-MEL-2 melanoma
  TGI: > 25 µM
SK-MEL-28 melanoma
  TGI: > 25 µM
SK-MEL-5 melanoma
  TGI: > 25 µM
SN12C renal
  TGI: > 25 µM
SNB-19 CNS
  TGI: > 25 µM
SNB-75 CNS
  TGI: > 25 µM
SR leukemia
  TGI: > 25 µM
SW-620 colon
  TGI: > 25 µM
TK-10 renal
  TGI: > 25 µM
U251 CNS
  TGI: > 25 µM
UACC-257 melanoma
  TGI: > 25 µM
UACC-62 melanoma
  TGI: > 25 µM
UO-31 renal
  TGI: > 25 µM
XF 498 CNS
  TGI: > 25 µM

## Cc1cc(C)nc(NS(=O)(=O)c2ccc(Nc3c4ccc(Cl)cc4nc4c(C(=O)Nc5ccc(S(N)(=O)=O)cc5)cccc34)cc2)n1
786-0 renal
  TGI: 28.7 µM
A498 renal
  TGI: 32.6 µM
ACHN renal
  TGI: > 100 µM
CCRF-CEM leukemia
  TGI: > 100 µM
DLD-1 colon
  TGI: 32 µM
DMS 114 small cell lung
  TGI: 65 µM
EKVX NSCLC
  TGI: 48.8 µM
HCC-2998 colon
  TGI: 30.9 µM
HCT-116 colon
  TGI: 30.2 µM
HCT-15 colon
  TGI: 36.2 µM
HOP-62 NSCLC
  TGI: 37.8 µM
HT29 colon
  TGI: 52.4 µM
K-562 leukemia
  TGI: > 100 µM
KM12 colon
  TGI: 27.2 µM
KM20L2 colon
  TGI: 33.1 µM
LOX IMVI melanoma
  TGI: 34.8 µM
LXFL 529 NSCLC
  TGI: > 100 µM
M14 melanoma
  TGI: 34.7 µM
M19-MEL melanoma
  TGI: > 100 µM
MALME-3M melanoma
  TGI: > 100 µM
MOLT-4 leukemia
  TGI: 39.7 µM
NCI-H23 lung
  TGI: 43 µM
NCI-H460 lung
  TGI: 60.8 µM
NCI-H522 lung
  TGI: 24.1 µM
OVCAR-3 ovarian
  TGI: 30.2 µM
OVCAR-4 ovarian
  TGI: 55.5 µM
OVCAR-5 ovarian
  TGI: 28.8 µM
OVCAR-8 ovarian
  TGI: 37.7 µM
RPMI-8226 leukemia
  TGI: 76.5 µM
RXF 393 renal
  TGI: 26.7 µM
RXF-631 renal
  TGI: 44.2 µM
SF-268 CNS
  TGI: > 100 µM
SF-295 CNS
  TGI: 36.9 µM
SF-539 CNS
  TGI: 37.9 µM
SK-MEL-28 melanoma
  TGI: > 100 µM
SK-OV-3 ovarian
  TGI: 30.5 µM
SN12C renal
  TGI: 30.2 µM
SNB-19 CNS
  TGI: 93.9 µM
SNB-75 CNS
  TGI: > 100 µM
SNB-78 CNS
  TGI: > 100 µM
SR leukemia
  TGI: 51.5 µM
TK-10 renal
  TGI: 89.6 µM
U251 CNS
  TGI: 28.7 µM
UACC-257 melanoma
  TGI: 43.9 µM
UACC-62 melanoma
  TGI: 76.6 µM
UO-31 renal
  TGI: 39.2 µM
XF 498 CNS
  TGI: 45.6 µM
